# Data published in US20240262832A1, “SMALL MOLECULE MODULATORS OF GLUCOCEREBROSIDASE ACTIVITY AND USES THEREOF” (Vanqua Bio, Inc., priority 2021, published 2024).
# Target: T1, GCase (Homo sapiens, UniProt P04062)
# T1 construct: endogenous in cells; host or cells: HeLa cells
# T1 sequence (P04062 40-536): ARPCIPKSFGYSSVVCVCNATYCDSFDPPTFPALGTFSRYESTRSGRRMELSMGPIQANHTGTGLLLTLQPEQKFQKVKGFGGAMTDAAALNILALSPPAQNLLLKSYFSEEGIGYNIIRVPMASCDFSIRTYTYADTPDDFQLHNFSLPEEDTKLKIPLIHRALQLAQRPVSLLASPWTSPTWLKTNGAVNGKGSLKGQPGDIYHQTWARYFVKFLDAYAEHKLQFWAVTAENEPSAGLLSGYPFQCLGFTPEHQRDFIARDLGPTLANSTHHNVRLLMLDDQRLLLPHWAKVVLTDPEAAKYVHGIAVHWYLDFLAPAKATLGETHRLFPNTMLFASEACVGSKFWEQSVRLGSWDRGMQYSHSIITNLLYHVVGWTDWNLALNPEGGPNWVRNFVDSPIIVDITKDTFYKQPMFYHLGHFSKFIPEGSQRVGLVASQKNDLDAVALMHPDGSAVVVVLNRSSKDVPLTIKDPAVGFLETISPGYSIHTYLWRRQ
# Experiment: activation of GCase in a live cell PFB assay in HELA cells
# Format: cell-based
row,EC50 [µM],SMILES
1,> 100,"C[C@H]1CC[C@H](COc2cccnc2C(F)(F)F)CN1c1cnc2cnn(CC(F)F)c2n1 [Compound 78, 3-{[(3S,6S)-1-[1-(2,2-Difluoroethyl)pyrazolo[3,4-b]pyrazin-6-yl]-6-methylpiperidin-3-yl]methoxy}-2-(trifluoromethyl)pyridine]"
2,< 10,"C[C@@H]1CC[C@@H](COc2cccnc2C(F)(F)F)CN1c1cnc2cnn(CC(F)F)c2n1 [Compound 79, 1-(2,2-Difluoroethyl)-6-((2R,5R)-2-methyl-5-(((2-(trifluoromethyl)pyridin-3-yl)oxy)methyl)piperidin-1-yl)-1H-pyrazolo[3,4-b]pyrazine]"
3,< 10,"C[C@@H]1CC[C@H](COc2cccnc2C(F)(F)F)CN1c1cnc2cnn(CC(F)F)c2n1 [Compound 80, 1-(2,2-Difluoroethyl)-6-((2R,5S)-2-methyl-5-(((2-(trifluoromethyl)pyridin-3-yl)oxy)methyl)piperidin-1-yl)-1H-pyrazolo[3,4-b]pyrazine]"
4,10 to 50,"FC(F)Cn1ncc2ncc(N3C[C@@H]4[C@@H](COc5ncccc5C(F)(F)F)[C@@H]4C3)nc21 [Compound 89, (1R,5S,6S)-3-[1-(2,2-difluoroethyl)-1H-pyrazolo[3,4-b]pyrazin-6-yl]-6-({[3-(trifluoromethyl)pyridin-2-yl]oxy}methyl)-3-azabicyclo[3.1.0]hexane]"
5,10 to 50,"FC(F)Cn1ncc2ncc(N3C[C@@H]4[C@@H](COc5cc(C(F)(F)F)ccn5)[C@@H]4C3)nc21 [Compound 90, (1R,5S,6S)-3-[1-(2,2-difluoroethyl)-1H-pyrazolo[3,4-b]pyrazin-6-yl]-6-({[4-(trifluoromethyl)pyridin-2-yl]oxy}methyl)-3-azabicyclo[3.1.0]hexane]"
6,10 to 50,"FC(F)Cn1ncc2ncc(N3C[C@@H]4[C@@H](COc5cnccc5C(F)(F)F)[C@@H]4C3)nc21 [Compound 91, (1R,5S,6S)-3-[1-(2,2-difluoroethyl)-1H-pyrazolo[3,4-b]pyrazin-6-yl]-6-({[4-(trifluoromethyl)pyridin-3-yl]oxy}methyl)-3-azabicyclo[3.1.0]hexane]"
7,10 to 50,"FC(F)Cn1ncc2ncc(N3C[C@@H]4[C@@H](COc5ccnc(C(F)(F)F)c5)[C@@H]4C3)nc21 [Compound 92, (1R,5S,6S)-3-[1-(2,2-difluoroethyl)-1H-pyrazolo[3,4-b]pyrazin-6-yl]-6-({[2-(trifluoromethyl)pyridin-4-yl]oxy}methyl)-3-azabicyclo[3.1.0]hexane]"
8,< 10,"C[C@H]1C[C@@H](COc2cccnc2C(F)(F)F)CN(c2cnc3cnn(CC(F)F)c3n2)C1 [Compound 93, 1-(2,2-Difluoroethyl)-6-((3S,5R)-3-methyl-5-(((2-(trifluoromethyl)pyridin-3-yl)oxy)methyl)piperidin-1-yl)-1H-pyrazolo[3,4-b]pyrazine]"
9,< 10,"C[C@@H]1C[C@H](COc2cccnc2C(F)(F)F)CN(c2cnc3cnn(CC(F)F)c3n2)C1 [Compound 94, 1-(2,2-Difluoroethyl)-6-((3R,5S)-3-methyl-5-(((2-(trifluoromethyl)pyridin-3-yl)oxy)methyl)piperidin-1-yl)-1H-pyrazolo[3,4-b]pyrazine]"
10,< 10,"C[C@@H]1C[C@@H](COc2cccnc2C(F)(F)F)CN(c2cnc3cnn(CC(F)F)c3n2)C1 [Compound 95, 1-(2,2-Difluoroethyl)-6-((3R,5R)-3-methyl-5-(((2-(trifluoromethyl)pyridin-3-yl)oxy)methyl)piperidin-1-yl)-1H-pyrazolo[3,4-b]pyrazine]"
11,10 to 50,"C[C@H]1C[C@H](COc2cccnc2C(F)(F)F)CN(c2cnc3cnn(CC(F)F)c3n2)C1 [Compound 100, 1-(2,2-Difluoroethyl)-6-((3S,5S)-3-methyl-5-(((2-(trifluoromethyl)pyridin-3-yl)oxy)methyl)piperidin-1-yl)-1H-pyrazolo[3,4-b]pyrazine]"
12,10 to 50,"FC(F)(F)Cn1ncc2ncc(N3C[C@@H]4[C@@H](COc5cccnc5C(F)(F)F)[C@@H]4C3)nc21 [Compound 101, (1R,5S,6S)-3-[1-(2,2,2-Trifluoroethyl)-1H-pyrazolo[3,4-b]pyrazin-6-yl]-6-({[2-(trifluoromethyl)pyridin-3-yl]oxy}methyl)-3-azabicyclo[3.1.0]hexane]"

# The remaining lines, values behind:
row,SMILES,EC50 [µM]
1,"O=C(c1ccc2cc[nH]c2c1)N1C[C@@H]2[C@@H](COc3cccc(C(F)(F)F)n3)[C@@H]2C1 [Compound 74, 6-[(1R,5S,6S)-6-({[6-(trifluoromethyl)pyridin-2-yl]oxy}methyl)-3-azabicyclo[3.1.0]hexane-3-carbonyl]-1H-indole]",10 to 50
2,"CC(C)c1cc(C(=O)N2C[C@@H]3[C@@H](COc4cccc(C(F)(F)F)n4)[C@@H]3C2)[nH]n1 [Compound 75, (1R,5S,6S)-3-[3-(Propan-2-yl)-1H-pyrazole-5-carbonyl]-6-({[6-(trifluoromethyl)pyridin-2-yl]oxy}methyl)-3-azabicyclo[3.1.0]hexane]",10 to 50
3,"O=C(c1nnc(C2(c3ccccc3)CCOC2)o1)N1CCCC(COc2ccccc2)C1 (stereo not shown) [Compound 76, 3-(phenoxymethyl)-1-[5-(3-phenyloxolan-3-yl)-1,3,4-oxadiazole-2-carbonyl]piperidine]",10 to 50
4,"C[C@H]1CC[C@@H](COc2cccnc2C(F)(F)F)CN1c1cnc2cnn(CC(F)F)c2n1 [Compound 77, 1-(2,2-Difluoroethyl)-6-((2S,5R)-2-methyl-5-(((2-(trifluoromethyl)pyridin-3-yl)oxy)methyl)piperidin-1-yl)-1H-pyrazolo[3,4-b]pyrazine]",< 10
5,"Cc1ccccc1OCC1CCCN(C(=O)c2c(-c3ccccc3)n(C)c3nccnc23)C1 (stereo not shown) [Compound 81, (5-Methyl-6-phenyl-5H-pyrrolo[2,3-b]pyrazin-7-yl)(3-((o-tolyloxy)methyl)piperidin-1-yl)methanone]",10 to 50
6,"CC(=O)N1CCC(c2cc3ncc(N4CCCC(COc5ccccc5C)C4)nc3n2C)CC1 (stereo not shown) [Compound 86, 1-(4-(5-Methyl-3-(3-((o-tolyloxy)methyl)piperidin-1-yl)-5H-pyrrolo[2,3-b]pyrazin-6-yl)piperidin-1-yl)ethan-1-one]",10 to 50
7,"Fc1cc(F)cc(OCC2CCCN(c3cnc4cnn(C5COC5)c4n3)C2)c1 (stereo not shown) [Compound 88, 6-(3-((3,5-Difluorophenoxy)methyl)piperidin-1-yl)-1-(oxetan-3-yl)-1H-pyrazolo[3,4-b]pyrazine]",10 to 50
8,"Cn1c(-c2ccc(F)cc2)nc2ncc(C(=O)N3CCCC(COc4cccnc4C(F)(F)F)C3)nc21 (stereo not shown) [Compound 96, (2-(4-Fluorophenyl)-1-methyl-1H-imidazo[4,5-b]pyrazin-6-yl)(3-(((2-(trifluoromethyl)pyridin-3-yl)oxy)methyl)piperidin-1-yl)methanone]",10 to 50
9,"Cn1c(-c2ccc(F)cc2)nc2nc(C(=O)N3CCCC(COc4cccnc4C(F)(F)F)C3)cnc21 (stereo not shown) [Compound 97, (2-(4-Fluorophenyl)-1-methyl-1H-imidazo[4,5-b]pyrazin-5-yl)(3-(((2-(trifluoromethyl)pyridin-3-yl)oxy)methyl)piperidin-1-yl)methanone]",> 100
10,"FC(F)(F)c1ncccc1OC[C@@H]1[C@H]2CN(c3cnc4cnn(C5COC5)c4n3)C[C@@H]12 [Compound 98, 1-(Oxetan-3-yl)-6-((1R,5S,6r)-6-(((2-(trifluoromethyl)pyridin-3-yl)oxy)methyl)-3-azabicyclo[3.1.0]hexan-3-yl)-1H-pyrazolo[3,4-b]pyrazine]",> 100
